1 compound from US10722505B2, “Substituted 2,4 diamino-quinoline as new anticancer agents” (GENOSCIENCE PHARMA, priority 2014, dated 2020) can be followed below.

Experiment [1] has as its system ALDH+ (CSC) population of MOLM-14 cell line. The experiment is described as follows: Aldefluor kit assay, ALDH+ compartment in MOLM-14. The settings on record: 72 h, control = 100. The class given is cell-based, human. From the text: Analysis of the of aldehyde dehydrogenase (ALDH) compartment and high activity level of aldehyde dehydrogenase activity (ALDH+) was used to detect tumor initiating cells (cancer stem cells, CSC) population. The Aldefluor™ kit assay (StemCell Technologies, 01700) allowed to assess the activity of drugs on CSC cells like in a MOLM-14 acute myeloid leukemia cell line population (ref: Storms, R. W., Trujillo, A. P., Springer, J. B., Shah, L., Colvin, O. M., Ludeman, S. M., & Smith, C. (1999). Isolation of primitive human hematopoietic progenitors on the basis of aldehyde dehydrogenase activity. Proceedings of the National Academy of Sciences, 96(16), 9118-9123). The Aldefluor™ kit assay was used according to the procedure described by the manufacturer. Briefly, MOLM-14 cell line was cultured in MEM alpha medium supplemented with 10% v/v Fetal Bovine Serum, 1% Penicillin-Streptomycin and maintained at 37° C. with 5% CO2. 5·10^5 cells were used in this assay. Each compound was added at different concentrations (see table 8), and cell cultures were incubated for 72 h. Vehicle (H2O) was used as a control, and all compounds were tested in a constant percentage of vehicle. Cells obtained from cell culture were incubated for 45 minutes at 37° C. with Aldefluor™ buffer assay containing the Bodipy™-aminoacetaldehyde, a fluorescent ALDH aldehyde substrate. ALDH converts the fluorescent substrate BAAA to the Bodipy™-aminoacetic acid (BAA) which is retained in the cell. An active efflux inhibitor is present in the Adelfluor™ assay buffer in order to avoid the active efflux from the cell of the substrate product ALDH dependent converted BAA. The fluorescent signal is directly proportional to the ALDH activity in the cells and is measured by flow cytometry. A negative control is used to measure the background fluorescence level. For such purpose, 4-(N,N-diethylamino)-benzaldehyde (DEAB) was used as selective ALDH inhibitor. A viability cell count was performed using LIVE/DEAD® Fixable Far Red Dead Cell Stain Kit (Invitrogen). The experimental data are analyzed using a computer program, Graphpad Prism v5 (GraphPad Software, Inc. La Jolla, Calif.) and EC50 values were determined as the dose of compound required to reduce absorbance values to 50% of the signal obtained for vehicle treated cell cultures.

Experiment [2] concerns LI0574 HCC patient derived cells. The experiment is described as follows: CellTiter-Glo growth inhibition, HCC patient-derived cells LI0574. The class given is cell-based, human. Conditions: Homo sapiens; LI0574, 72 hours. As to the method:
The patient derived Hepatocellular Carcinoma (HCC) cells were maintained in medium respectively described in table 15 containing 1% penicillin-streptomycin (Life Technologies, 15070-063), with a supplements for primary cell culture (PCS) containing hydrocortisone (50 nM), Epidermal Growth Factor (20 ng/ml), β-fibroblast Growth Factor (10 ng/ml), Heparin (2 μg/ml) ITS liquid media supplement (1×) and non-essential amino acid (NEAA, 0.01 mM, 1×). The primary cell were cultured in a humidified atmosphere (95% relative humidity) with 5% CO2 at 37° C.
The cell growth inhibition assay was performed as described previously in example 5 using the CellTiter-Glo® luminescent cell viability assay as described by the manufacturer (Promega, Ref G7571). The number of cells seeded per well (in 96-Well Flat Clear Bottom Black Polystyrene TC-Treated Microplates, Cat #3340, Corning®) is described in the table 16. A backseal black sticker (Cat #6005189, Perkin Elmer) was placed to the bottom of each plate before recording CellTiter-Glo® luminescence.
The experimental data are analyzed using a computer program, Graphpad Prism V 5.0 (GraphPad Software, Inc. La Jolla, Calif.) and EC50 values were determined as the dose of compound required to reduce absorbance values to 50% of the signal obtained for vehicle treated cell cultures and were a mean of at least three independent experiments.
In general terms: In ATP-based viability assays light output follows the ATP content of the culture.

Counter-ions that a name gives are not always drawn.

As a reminder, the EC50 is the midpoint of the concentration-response curve. Low readings indicate higher potency in that assay, high ones lower potency in that assay. Regarding `CC(C)(C)NC1CCN(c2cc(NCc3ccc(Cl)cc3)nc3ccccc23)CC1` [Compound 2-3, 2-(4-chlorobenzylamino)-4-(4-tert-butylaminopiperidin-1-yl)-quinoline hydrochloride salt], the “ALdefluor positive CSCs (%)” value in experiment [1] (MOLM-14, 2.5 μM) came to 100%; in experiment [1] (MOLM-14, 5.0 μM), 80%; in experiment [1] (MOLM-14, 7.5 μM), 20%. In addition, a half-maximal response in experiment [2] (EC50) required 2400 nM.
